According to patent publication US11446402B2, “Composition for material delivery, including exosome mimetics derived from red blood cells, and use thereof” (Kyungpook National University Industry—Academic Cooperation …, priority 2018, dated 2022):

Key:
[1] = In vivo gamma camera imaging after tail vein infusion; parameters: species or system C57BL/6 mice
Protocol: In vivo gamma camera imaging was performed on 5-week-old male C57BL/6 mice (Hamamatsu, Shizuoka). The gamma camera images were captured and taken for 10 min using a 2 mm pinhole collimator (Infinia II, GE Healthcare, Milwaukee, Wis., USA). A 200 μl volume of 37 MBq ^99mTC-RBC-EM was infused into the tail vein of mice. As a control, the same amount of free ^99mTc was infused. During the imaging, mice were continuously anesthetized using 2.5% isoflurane (Merial, Lyon, France). The gamma camera images were obtained by capturing the gamma camera images 1 hour and 3 hours after infusing ^99mTc-RBC-EM and free ^99mTc.
The region of interests (ROIs) in mice into which free ^99mTc was infused were the thyroid gland and the stomach, and the region of interests (ROIs) in mice into which ^99mTc-RBC-EM was infused were the thyroid gland and the liver/spleen. The right thigh part was used as a control of ROI. The average ROI count per pixel was calculated by dividing the same mice by the control ROI.

8505C cells = assay: Labeling of tumor cells with ^99mTc, uptake by gamma-counter; format: cell-based, human; details: 4 μCi
Protocol: A human atypical thyroid carcinoma 8505C cell line (Deutsche Sammlung von Mikroorganismen and Zellkulturen (DSMZ)) was cultured under a humidified atmosphere of 5% CO2 at 37° C. in Dulbecco's Modified Eagle Medium (DMEM, Invitrogen, Grand Island, N.Y., USA) supplemented with 10% fetal bovine serum (FBS), 10 U/ml penicillin, and 10 μg/ml streptomycin (Invitrogen). The 8505C cells were cultured together with ^99mTc-RBC-EM with various doses (0, 1, 2, and 4 μCi). 24 hours later, free ^99mTc-RBC-EM, which had not been absorbed in cells, were washed using PBS. Thereafter, the 8505C cells were cultured in a 20% FBS solution in a 37° C. CO2 incubator for 1, 6, 12, and 18 hours. The uptake values were measured by a gamma-counter (Cobra II, 1 Hewlett Packard, USA) at all the time points, and the amount of radiation measured was shown as a count per minute (cpm) unit. In order to compare the aforementioned results with the results of ^99mTc-RBC-EM (4 μCi), it was measured whether tumor cells were labeled with ^99mTc-RBC-EM using free ^99mTc (4 μCi).

uptake in regions of interest 3 hours after the infusion compared to 1 hour ([1]; free ^99mTc: thyroid gland and stomach, ^99mTc-RBC-EM: thyroid gland, liver, spleen): significantly (P<0.001) increased
SMILES: [99Tc] [free ^99mTc, technetium-99m]
organs of uptake in gamma camera image ([1]; 1 hour after injection, intravenous): strong uptake of free ^99mTc in the thyroid gland, the stomach, and the bladder | absorption in 8505C cells (8505C cells): rarely absorbed | absorption in 8505C cells as the time is increased (8505C cells): not increased
